Laboratory results published in ChEMBL document CHEMBL3259709, “Quinoline Derivatives as 5-HT6 Receptor PET Ligands” (ACS Med Chem Lett, 2014).
One block for each compound: values may come before it.

Key:
[1] = Ratio of free drug level from brain to plasma concentration in rat at 0.05 mg/kg, iv after 3 mins; type: ADME, organism-based; set-up: dose 0.05 mg/kg, route intravenous; settings: read-out: BPR
[2] = Plasma concentration in rat at 0.05 mg/kg, iv after 3 mins; type: ADME, organism-based; set-up: dose 0.05 mg/kg, route intravenous
[3] = Ratio of free drug level from brain to plasma concentration in rat at 0.05 mg/kg, iv after 5 mins; type: ADME, organism-based; set-up: dose 0.05 mg/kg, route intravenous; settings: read-out: BPR
[4] = Plasma concentration in rat at 0.05 mg/kg, iv after 5 mins; type: ADME, organism-based; set-up: dose 0.05 mg/kg, route intravenous
Nucleic Acid [5] = assay: Ratio of drug level from cortex to cerebellum in rat at 0.05 mg/kg, iv after 40 mins; type: ADME, organism-based; set-up: dose 0.05 mg/kg, route intravenous; settings: in vivo
Nucleic Acid [6] = assay: Ratio of drug level from hippocampus to cerebellum in rat at 0.05 mg/kg, iv after 5 mins; type: ADME, organism-based; set-up: dose 0.05 mg/kg, route intravenous; settings: in vivo
Nucleic Acid [7] = assay: Ratio of drug level from hippocampus to cerebellum in rat at 0.05 mg/kg, iv after 40 mins; type: ADME, organism-based; set-up: dose 0.05 mg/kg, route intravenous; settings: in vivo
Nucleic Acid [8] = assay: Ratio of drug level from striatum to cerebellum in rat brain at 0.05 mg/kg, iv after 40 mins; type: ADME, organism-based; set-up: dose 0.05 mg/kg, route intravenous; settings: in vivo
Nucleic Acid [9] = assay: Ratio of drug level from cortex to cerebellum in rat at 0.05 mg/kg, iv after 5 mins; type: ADME, organism-based; set-up: dose 0.05 mg/kg, route intravenous; settings: in vivo
Nucleic Acid [10] = assay: Ratio of drug level from striatum to cerebellum in rat brain at 0.05 mg/kg, iv after 5 mins; type: ADME, organism-based; set-up: dose 0.05 mg/kg, route intravenous; settings: in vivo
[11] = target: 5-hydroxytryptamine receptor 2A (Homo sapiens, UniProt P28223); assay: Displacement of [125I]-R-O-DOI from human 5-HT2A receptor expressed in CHO-K1 cells by liquid scintillation spectrometry; type: cell-based
Sequence of 5-hydroxytryptamine receptor 2A (P28223 whole entry): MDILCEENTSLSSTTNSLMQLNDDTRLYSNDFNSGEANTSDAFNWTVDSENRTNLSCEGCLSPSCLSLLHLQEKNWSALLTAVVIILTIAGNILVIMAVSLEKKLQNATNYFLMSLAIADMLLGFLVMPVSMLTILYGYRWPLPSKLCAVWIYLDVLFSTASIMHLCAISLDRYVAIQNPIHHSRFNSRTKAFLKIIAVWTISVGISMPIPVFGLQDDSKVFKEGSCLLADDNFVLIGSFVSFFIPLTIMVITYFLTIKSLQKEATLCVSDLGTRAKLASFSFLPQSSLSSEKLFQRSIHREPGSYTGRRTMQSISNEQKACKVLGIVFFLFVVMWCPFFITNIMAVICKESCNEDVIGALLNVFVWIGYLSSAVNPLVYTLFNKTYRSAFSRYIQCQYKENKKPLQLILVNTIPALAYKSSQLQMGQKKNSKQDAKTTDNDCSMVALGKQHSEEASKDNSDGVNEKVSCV

Kp uu at 0.05 h [1]: 0.21
concentration at 0.05 h [2]: 104 ng/mL
Kp uu at 5 min [3]: 0.28
concentration at 5 min [4]: 83.5 ng/mL
Compound: CN1CCC(c2cccc3cc(S(=O)(=O)c4ccccn4)cnc23)CC1

Ratio (Nucleic Acid [5]): 1.2
Ratio (Nucleic Acid [6]): 1.06
Ratio (Nucleic Acid [7]): 1.07
Ratio (Nucleic Acid [8]): 1.31
Ratio (Nucleic Acid [9]): 0.9
Ratio (Nucleic Acid [10]): 0.81
Compound: [3H]C([3H])([3H])N1CCC(c2cccc3cc(S(=O)(=O)c4ccccn4)cnc23)CC1

Ki [11]: 0.39 nM
Compound: CN1CCN(c2cccc3cc(S(=O)(=O)c4cccc(F)c4)cnc23)CC1
